For data set [1], the system named is slow wave sleep. Put plainly: EEG study of the duration of slow wave sleep in rats after i.p. injection. Type of data set: in vivo, Male Wistar rats. Conditions: for Duration of slow wave sleep: 3 h EEG recording, mean ± SEM; for Increase of the duration of slow wave sleep: versus NaCl. The source says: Male Wistar rats, weighing 200 g at the beginning of the experiment, coming from the Centre d'Elevage Janvier (Route des Chenes-Secs, Le Genest St-Isle, 53940 France) were used for this study.
After eight days of adaptation to the breeding conditions at the Animalerie Centrale de la Faculte de Medecine (11, rue Humann 67084 Strasbourg), these animals were placed in individual cages (Makrolon type cages 3H, 425×266×150) in a standard (7 a.m./7 p.m.) day/night rhythm, with water and food (UAR ref. A04) continually available to them. The animals were then transferred to an experimentation facility on supports capable of receiving 24 cages.
The surgical procedure is the following: after one month of becoming accustomed to the (10 a.m./10 p.m.) day/night cycle, the rats are weighed and then anesthetized with ketamine (Imalgene 500 Merial) at a dose of 150 mg/kg i.p. After having placed the animal in a stereotactic frame (Narishige), a rostrocaudal incision is made using a sterilized scalpel (No. 3 blade, Swann-Morton England).
The parietal bone sutures, Lambda and Bregma, are exposed serve as stereotactic reference (point 0). After having perforated the cranial casing using a dental drill without infringing on the meninges (Minitor Narishige), two stainless steel screws 500 μm in diameter (Magister, 4 rue du Lac 25130 Villers Le Lac) are implanted at the following coordinates: Bregma AP: ±4 mm and ML: ±3 mm.
Two copper wires are soldered with tin to the screws, on one hand, and to the female connector, on the other hand (VP Electronic, Square de la Poteme, 91302 Massy Cedex). The assembly which is realized is then covered with a polymerizing resin (Paladur, Kulzer, Germany).
The implanted rats are then placed in their respective cages. A post-operative period greater than 48 h is complied with before any recording.
All the EEG recordings are made during the first hours of the dark [sic; light] phase (that is, between 10 a.m. and 1 p.m.), which represents the period of awakening and intense activity of the animals.
The rats are placed in a cage made of Plexiglas (170×170×300), and after a 30 min period of becoming accustomed to their new environment, they are recorded continuously for a duration of 3 h after i.p. injection (2 mL/kg) of 0.9% NaCl or the ligand to be studied. The EEG graph is made using an 8-track recorder (Alvar Electronic, 6 rue du Progres, 93511-Montreuil) with a running speed of 0.5 cm/s.
The total durations of slow wave sleep for each animal are evaluated in 20 min sections for the total duration of the 3 h recording (1 cm=2 seconds).
The statistical comparison is made using an analysis of variance test (Anova) followed by a multiple comparison test. […]
The numbers in parentheses correspond to the percentages of slow wave sleep with respect to the total duration of sleep.

In data set [2] the target is GHB receptors (Rattus norvegicus, UniProt P11275). Briefly: Displacement of 3H-GHB binding on rat brain membranes. Further details: species or system Wistar rats. On the technique in general: In a radioligand displacement assay an active substance lowers the binding of a labelled ligand.
The conditions of data set [3]: in cats; cited from earlier work.
Where [4] appears, read: read-out: IC50 (concentration displacing 50% of the reversible binding of 3H-GHB), rat brain membranes, potassium phosphate buffer pH 6.0, 30 min in ice.

pIC50: −log10 of the molar value. Where a name gives a salt, the structure may show the parent alone. Read-outs that look alike come from different tables or passages of the source.

GHB receptors, sequence (P11275 whole entry): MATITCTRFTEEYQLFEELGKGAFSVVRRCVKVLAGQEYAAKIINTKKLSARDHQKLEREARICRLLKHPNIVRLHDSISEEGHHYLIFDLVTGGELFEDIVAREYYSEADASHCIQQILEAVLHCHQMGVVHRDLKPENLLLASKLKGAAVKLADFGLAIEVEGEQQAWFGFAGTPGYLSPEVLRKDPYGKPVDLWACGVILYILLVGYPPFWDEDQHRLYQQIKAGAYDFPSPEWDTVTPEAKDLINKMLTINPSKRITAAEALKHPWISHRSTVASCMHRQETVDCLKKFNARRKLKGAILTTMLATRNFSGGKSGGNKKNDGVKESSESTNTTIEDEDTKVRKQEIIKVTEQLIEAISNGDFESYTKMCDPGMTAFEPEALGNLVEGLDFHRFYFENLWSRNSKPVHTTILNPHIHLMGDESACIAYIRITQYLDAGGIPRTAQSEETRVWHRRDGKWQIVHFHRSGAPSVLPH

As for `O=C(O)CCC(O)c1ccc(Cl)c(Cl)c1` (centres unmarked) [Compound 2, Sodium salt of 4-(3,4 dichlorophenyl)-4-hydroxybutanoic acid], in data set [1] (0.28 mmol/kg i.p.), the “Percentage of slow wave sleep with respect to the total duration of sleep (in parentheses)” value was 23%, the “Duration of slow wave sleep” value amounted to 53 ± 7 min and the “Increase of the duration of slow wave sleep” value came out at 42 min.

Turning to `O=C([O-])CCC(O)c1cc2c3c(cccc3c1)CC2.[Na+]` (centres unmarked) [Compound 24, Sodium salt of 4-(1,2-dihydroacenaphthylen-4-yl)-4-hydroxybutanoic acid], the “Percentage of slow wave sleep with respect to the total duration of sleep (in parentheses)” value was found to be 23% in data set [1] (0.15 mmol/kg i.p.) and 28% in data set [1] (0.28 mmol/kg i.p.). In addition, the “Duration of slow wave sleep” value in data set [1] (0.15 mmol/kg i.p.) is given as 53 ± 7 min; in data set [1] (0.28 mmol/kg i.p.), 61 ± 8 min. The “Increase of the duration of slow wave sleep” value in data set [1] (0.15 mmol/kg i.p.) turned out to be 42 min; in data set [1] (0.28 mmol/kg i.p.), 50 min. For the same compound, the pIC50 is 7.10 in data set [2] (affinity for the GHB receptor, repeated in Table 4, read-out: IC50) and 7.10 in data set [2] (setting [4]).

Take `O=C(O)CCC(O)c1ccc2c(c1)-c1ccccc1C2` (centres unmarked) [Compound 32, Sodium salt of 4-(9H-fluoren-3-yl)hydroxybutanoic acid]: in data set [2] (setting [4]), the pIC50 was 6.52.

`CC1(C)Cc2cc(C(O)CCC(=O)O)ccc2NC1=O` (centres unmarked) [Compound 40, Sodium salt of 4-(3,3-dimethyl-2-oxo-1,2,3,4-tetrahydroquinolin-6-yl)-4-hydroxybutanoic acid]: the pIC50 in data set [2] (setting [4]) is 5.96.

For `O=C(O)CCCO` [GHB, γ-hydroxybutyrate], the half-life result in data set [3] was “approximately one”.

Take “Sodium salt of 4-hydroxy-4-(phenoxathiin-2 or 3-yl) butanoic acid isomer B [Compound 29]”: in data set [2] (setting [4]), the pIC50 is 6.05.

As to “Sodium salt of 4-hydroxy-4-(phenoxathiin-2 or 3-yl)butanoic acid isomer A [Compound 28]”, the pIC50 in data set [2] (setting [4]) is 7.00.

As for “Sodium salts of 4-hydroxy-4-(4-oxo-4,5-dihydro-3H-pyridazo(4,5-b)indol-8 and 6-yl)butanoic acids 8/6 isomer mixture [Compound 33]”, the pIC50 in data set [2] (setting [4]) is 6.70.

The record behind these values is patent US20050113366A1 (priority 2000, published 2005).
